Experimental data: patent US20230083012A1, “DIHYDROPYRIMIDINE DERIVATIVES AND USES THEREOF IN THE TREATMENT OF HBV INFECTION OR OF HBV-INDUCED DISEASES” (priority 2019, published 2023)

What was measured:
[1] = Cytotoxicity determination in HepG2.2.15 cells (CCK-8 cell viability); type: cell-based; conditions: human, 6 days treatment, CCK-8 assay, highest concentration 100 uM
Method: (§1) HepG2.2.15 (the HepG2.2.15 cell line can be produced by transfection of the HepG2 cell line as described in Sells, Chen, and Acs 1987 (Proc. Natl. Acad. Sci. USA 84: 1005-1009), and the HepG2 cell line is available from ATCC® under number HIB-8065™)
(§2) HepG2.2.15 cells were plated into 96-well plate in 2% FBS culture medium at the density of 40,000 cells/well and 5,000 cells/well for HBV inhibitory activity and cytotoxicity determination, respectively. After incubation at 37° C., 5% CO2 overnight, cells were treated with medium containing compounds for 6 days with medium and compounds refreshed after 3 days of treatment. Each compound was tested in a 1:3 serial dilutions at 8 different concentrations in triplicate. The highest concentration of the compounds was 10 uM or 1 uM for anti-HBV activity assay and 100 uM for cytotoxicity determination.
Cell viability was determined by CCK-8 assay. After 6 days of compounds treatment, 20 μl CCK-8 reagents were added to each well of cytotoxicity assay plates. Cell plates were incubated at 37° C., 5% CO2 for 2.5 h. The absorbance at 450 nm wavelength and the absorbance at 630 nm wavelength as reference was measured.
(§3) 2) DATA Analysis EC50 and CC50 values are calculated by the GRAPTIPAD PRISM software.

[2] = test system: HBV; test: Anti-HBV activity in HepG2.2.15 cells (HBV DNA in culture medium by qPCR); type: cell-based; conditions: Hepatitis B virus, HepG2.2.15, 144 h, HepG2.2.15 cells, 6 days treatment, HBV DNA in culture medium quantified by real-time PCR; read-out: EC50
Method: Example 2: Anti-Viral Assay in HepG2.2.15 Cells
as §1, §2
The change of HBV DNA level induced by the compounds was assessed by quantitative real-time polymerase chain reaction (qPCR). Briefly, the HBV DNA in the culture medium was extracted using QIAamp 96 DNA Blood Kit according to the manual and then quantified by real-time PCR assay using the primers and probe in the table 2 below.
as §3

| SMILES | CC50 at 6 days [1] [nM] | EC50 [2] [nM] |
| --- | --- | --- |
| CCOC(=O)C1=C(CN2CC(F)(F)[C@@H]3[C@H]2CN(C)N3CC2CC(C)(C(=O)O)C2)NC(c2nccs2)=N[C@H]1c1cccc(F)c1C (single isomer, unassigned) [Compound 98] | > 6200 | 14 |
| CCOC(=O)C1=C(CN2CC[C@H]3C(=O)N(CC(C)(C)C(=O)O)C[C@H]32)NC(c2nccs2)=N[C@H]1c1cccc(F)c1C (single isomer, unassigned) [Compound 25A] | 74500 | 32.4 |
| CCOC(=O)C1=C(CN2C[C@H](F)[C@@]3(F)C(=O)N(CC(C)(C)C(=O)O)C[C@@H]23)NC(c2nccs2)=N[C@H]1c1cccc(F)c1C (single isomer, unassigned) [Compound 204C] | 36900 | 7.1 |
| CCOC(=O)C1=C(CN2CC(F)(F)[C@@H]3CN(C(=O)CC(C)(C)C(=O)O)C[C@@H]32)NC(c2nccs2)=N[C@H]1c1cccc(F)c1C (single isomer, unassigned) [Compound 23B] | 30200 | 24 |
| CCOC(=O)C1=C(CN2CC(F)(F)[C@H]3[C@@H]2CCN3C(=O)[C@H]2CC[C@H](C(=O)O)CC2)NC(c2nccs2)=N[C@H]1c1cccc(F)c1C (single isomer, unassigned) [Compound 30] | 28000 | 81.3 |
| CCOC(=O)C1=C(CN2CC(F)(F)[C@H]3CN(C(C)C(=O)O)C[C@H]32)NC(c2nccs2)=N[C@H]1c1cccc(F)c1C (single isomer, unassigned) [Compound 14B] | 67900 | 102 |
| CCOC(=O)C1=C(CN2CC(F)(F)[C@@H]3CN(C(N)=O)C[C@@H]32)NC(c2nccs2)=N[C@H]1c1cccc(F)c1C (single isomer, unassigned) [Compound 35] | 35200 | 13.3 |
| CCOC(=O)C1=C(CN2CC(F)C3C2CCN3CC(C)(C)C(=O)O)NC(c2nccs2)=N[C@H]1c1cccc(F)c1C (stereo partly drawn) [Compound 11, 3-(4-(((S)-5-(ethoxycarbonyl)-6-(3-fluoro-2-methylphenyl)-2-(thiazol-2-yl)-3,6-dihydropyrimidin-4-yl)methyl)-6-fluorohexahydropyrrolo[3,2-b]pyrrol-1(2H)-yl)-2,2-dimethylpropanoic acid] | 37300 | 70.3 |
| CCOC(=O)C1=C(CN2CC(F)(F)[C@@H]3CN(c4ncc(C(=O)O)cn4)C[C@@H]32)NC(c2nccs2)=N[C@H]1c1cccc(F)c1C (single isomer, unassigned) [Compound 54] | 55200 | 49.2 |
| CCOC(=O)C1=C(CN2CC(F)(F)[C@@H]3[C@H]2CN(C)N3CCC(C)(C)C(=O)O)NC(c2nccs2)=N[C@H]1c1cccc(F)c1Cl (single isomer, unassigned) [Compound 102, 4-((cis)-4-((6-(2-chloro-3-fluorophenyl)-5-(ethoxycarbonyl)-2-(thiazol-2-yl)-3,6-dihydropyrimidin-4-yl)methyl)-6,6-difluoro-2-methylhexahydropyrrolo[3,2-c]pyrazol-1(2H)-yl)-2,2-dimethylbutanoic acid] | 53800 | 13.5 |
| CCOC(=O)C1=C(CN2CC(F)(F)C3CN(CC(C)C(=O)O)CC32)NC(c2nccs2)=N[C@H]1c1cccc(F)c1C (stereo in doubt) [Compound 15, 3-((cis)-1-(((S)-5-(ethoxycarbonyl)-6-(3-fluoro-2-methylphenyl)-2-(thiazol-2-yl)-3,6-dihydropyrimidin-4-yl)methyl)-3,3-difluorohexahydropyrrolo[3,4-b]pyrrol-5(1H)-yl)-2-methylpropanoic acid] | > 100000 | 60.3 |
| COC(=O)C1=C(CN2CC(F)(F)[C@@H]3[C@H]2CN(C)N3CCC(C)(C)C(=O)O)NC(c2nccs2)=N[C@H]1c1ccc(F)c(F)c1C (single isomer, unassigned) [Compound 101, 4-((cis)-4-((6-(3,4-Difluoro-2-methylphenyl)-5-(methoxycarbonyl)-2-(thiazol-2-yl)-3,6-dihydropyrimidin-4-yl)methyl)-6,6-difluoro-2-methylhexahydropyrrolo[3,2-c]pyrazol-1(2H)-yl)-2,2-dimethylbutanoic acid] | > 3100 | 25 |
| CCOC(=O)C1=C(CN2C[C@H](F)[C@H]3[C@@H]2CCN3CC(C)(C)C(=O)O)NC(c2nccs2)=N[C@H]1c1cccc(F)c1C (single isomer, unassigned) [Compound 11B] | 30000 | 31.4 |
| CCOC(=O)C1=C(CN2CC(F)(F)C3[C@@H]2CCN3[C@H]2C[C@@](C)(C(=O)O)C2)NC(c2nccs2)=N[C@H]1c1cccc(F)c1C (single isomer, unassigned) [Compound 112B] | 23600 | 4.7 |
| CCOC(=O)C1=C(CN2CC(F)(F)[C@@H]3CN(S(=O)(=O)[C@H]4C[C@@](C)(C(=O)O)C4)C[C@@H]32)NC(c2nccs2)=N[C@H]1c1cccc(F)c1C (single isomer, unassigned) [Compound 205B] | > 50000 | 103 |
| CCOC(=O)C1=C(CN2CC(F)(F)[C@@H]3[C@H]2CON3CCC(C)(C)C(=O)O)NC(c2nccs2)=NC1c1cccc(F)c1Cl (single isomer, unassigned) [Compound 171, (cis)-4-(4-((6-(2-chloro-3-fluorophenyl)-5-(ethoxycarbonyl)-2-(thiazol-2-yl)-3,6-dihydropyrimidin-4-yl)methyl)-6,6-difluorohexahydro-1H-pyrrolo[3,2-c]isoxazol-1-yl)-2,2-dimethylbutanoic acid] | 32300 | 4 |
| COC(=O)C1=C(CN2CC(F)(F)[C@@H]3CN(C(=O)C(C)(C)C(=O)O)C[C@@H]32)NC(c2nccs2)=N[C@H]1c1cccc(F)c1Cl (single isomer, unassigned) [Compound 206, 3-((cis)-1-((6-(2-chloro-3-fluorophenyl)-5-(methoxycarbonyl)-2-(thiazol-2-yl)-3,6-dihydropyrimidin-4-yl)methyl)-3,3-difluorohexahydropyrrolo[3,4-b]pyrrol-5(1H)-yl)-2,2-dimethyl-3-oxopropanoic acid] | > 100000 | 39.3 |
| CCOC(=O)C1=C(CN2CC(F)(F)[C@@H]3[C@H]2CN(CC(F)(F)F)N3CCC(C)(C)C(=O)O)NC(c2nccs2)=N[C@H]1c1cccc(F)c1C (single isomer, unassigned) [Compound 92] | 5000 | 61 |
| CCOC(=O)C1=C(CN2CC(F)(F)[C@@H]3CN(C(=O)NCC(C)(C)C(=O)O)C(=O)[C@@H]32)NC(c2nccs2)=N[C@H]1c1cccc(F)c1C (single isomer, unassigned) [Compound 189] | 28200 | 18.1 |
| CCOC(=O)C1=C(CN2CC(F)(F)[C@@H]3CN(C(=O)CC(C)(C)C(=O)O)C(=O)[C@@H]32)NC(c2nccs2)=N[C@H]1c1cccc(F)c1C (single isomer, unassigned) [Compound 191] | 35900 | 13.5 |
| CCOC(=O)C1=C(CN2CC(F)(F)[C@@H]3CN(CC(C)(C)C(=O)O)C[C@@H]32)NC(c2nccs2)=N[C@H]1c1cccc(F)c1C (single isomer, unassigned) [Compound 12B] | 86100 | 8.2 |
| CCOC(=O)C1=C(CN2CC(F)(F)[C@@H]3[C@H]2CON3CC(C)(C)C(=O)O)NC(c2nccs2)=N[C@@H]1c1ccc(F)nc1C (single isomer, unassigned) [Compound 172, 3-((cis)-4-((5-(Ethoxycarbonyl)-6-(6-fluoro-2-methylpyridin-3-yl)-2-(thiazol-2-yl)-3,6-dihydropyrimidin-4-yl)methyl)-6,6-difluorohexahydro-1H-pyrrolo[3,2-c]isoxazol-1-yl)-2,2-dimethylpropanoic acid] | > 100000 | 33 |
| COC(=O)C1=C(CN2CC(F)(F)[C@@H]3[C@H]2CON3CCC(C)(C)C(=O)O)NC(c2nccs2)=N[C@H]1c1cccc(F)c1C (single isomer, unassigned) [Compound 160] | 100000 | 14 |
| CCOC(=O)C1=C(CN2CC(F)(F)[C@H]3[C@@H]2CC(=O)N3CCCC(C)(C)C(=O)O)NC(c2nccs2)=N[C@H]1c1cccc(F)c1C (single isomer, unassigned) [Compound 156] | 10300 | 63 |
| CCOC(=O)C1=C(CN2CC(F)(F)C3CN(CC4(C(=O)O)CC4)CC32)NC(c2nccs2)=N[C@H]1c1cccc(F)c1C (stereo partly drawn) [Compound 16] | 37200 | 112 |
| CCOC(=O)C1=C(CN2CC(F)(F)[C@H]3[C@@H]2CCN3CCC(C)(C)C(=O)O)NC(c2nccs2)=N[C@H]1c1ccc(F)cc1Cl (single isomer, unassigned) [Compound 141] | 26700 | 3.5 |
| CCOC(=O)C1=C(CN2CC(F)(F)C3CN(CC(C)(C)C(=O)O)C(=O)C32)NC(c2nccs2)=N[C@H]1c1cccc(F)c1C (stereo partly drawn) [Compound 13] | 50000 | 8.4 |
